{"source": "patent US20260174780A1", "about": "“BISMUTH-THIOL COMPOSITIONS AND METHODS FOR TREATING INFLAMMATORY DISEASES” (Microbion Corporation, priority 2022, published 2026)", "key": {"[1]": {"test_system": "FITC-induced contact hypersensitivity", "assay": "FITC-induced contact hypersensitivity in mice (ear swelling, histopathology, ear cytokines)", "type": "in vivo, BALB/c mice", "conditions": "Group 3, 1 mg/mL topical; mean ± standard deviation", "method": "Protocol: Male BALB/c mice at 8 weeks old are used in the study.\nAll animals, except those in Group 1 (Sham), were sensitized topically (TOP) on the shaved abdominal skin with 200 μL of 0.5% Fluorescein Isothiocyanate (FITC) dissolved in 20% tributyrin in acetone on Days 1 and 2. On Day 7, animals were challenged by applying 20 μL of 0.5% FITC solution onto both sides of the right ear. Animals in Group 1 received nothing.\nVehicle, BisEDT test articles and reference compound (tacrolimus) were administered topically (TOP) once daily (QD) from Day 6 to Day 9 for 4 consecutive days (1 hour before FITC challenge on Day 7). The vehicle for BisEDT was phosphate-buffered saline (PBS).\n• 2.5 mg/mL BisEDT topical suspension • 1.25 mg/mL BisEDT topical suspension—prepared as a 1:1 dilution of 2.5 mg/mL BisEDT topical suspension in sterile water and vortexed to ensure homogeneity\nAnalysis: Ear swelling was measured by an experimenter blinded to treatment group, with a dial thickness micrometer gauge as an index of inflammation 30 min before dosing on Days 7, 8, 9 and 10. On Day 10, ear swelling was measured at 24 hours after the last dosing. Ear edema was calculated by subtracting the thickness of Day 7 (normal control) from Day n (treated ear). Percentage inhibition was calculated according to the formula: (Ic−It)/Ic×100, where Ic and It refer to the increase of ear thickness (mm) both in the control and treated animals. Body weight was recorded daily during the study period.\nThe animals were sacrificed on Day 10 and the ears were then harvested and weighed. Half of the right ear was fixed in 10% formalin for histopathology, and the other half was processed for cytokine measurement (IL-18, IL-6, and IL-10) using ThermoFisher Mouse ProcartaPlex Kit by Luminex."}, "[2]": {"test_system": "lung tissue of M. abscessus infected mice", "assay": "Lung histopathology in chronic M. abscessus infection study", "type": "in vivo, SCID/Beige mice", "conditions": "amikacin-treated (100 mg/kg/day), FIG. 5B", "method": "After 28 days of treatment with BisEDT, animals were euthanized by CO2 and secondary cardiac puncture to collect whole blood for quantitation of BisEDT concentration. Lungs and spleens from the CFU mice were homogenized with 1:1 H2O:Dey-Englev neutralizing broth to deactivate BisEDT. CFUs were determined after serial dilution. Mice for histology and the lung pair split, one half in formalin the other half weighed and snap frozen in liquid N2 to determine tissue concentration of BisEDT.\nSamples for histology were processed by the Veterinary Diagnostic Laboratory. Slides were stained with hematoxylin-eosin (HE stain) for general pathology as well as a slide for acid-fast stain to highlight the mycobacterial infection in lung tissue."}, "[3]": {"test_system": "Hypo-InflammaSkin models", "assay": "Ex vivo human skin model of psoriasis (Hypo-InflammaSkin), cytokine release in culture medium", "type": "cell-based", "conditions": "betamethasone 0.05% topical 25 μL daily Day 0-6", "text": "Background: InflammaSkin® model is a validated psoriasis-like model developed to reproduce key features of pro-Th17/Th1 inflammation associated with psoriasis. It relies on the in situ activation of resident T-cell of normal skin biopsies and their further polarization into Th17/Th1 phenotype with the supplementation of culture medium with a cocktail of pro-inflammatory cytokines.\nModel production and culture: 2 HypoSkin models of 15 mm in diameter (1.76 cm^2) were produced from 1 donor and cultured with 2 mL standard HypoSkin® medium. 20 Hypo-InflammaSkin models were produced from 1 donor by inducing in sit activation and Th17/Th1 polarization of skin resident T cells with proprietary cocktail and cultured with 2 mL Hypo-InflammaSkin® culture medium. The total treatable surface area of the models was 113 mm^2, and dosing of BisEDT took this into account based on dosing of the topical treatment. Models were maintained in standard cell culture conditions for the whole culture duration at 37° C., 5% CO2 and water saturation, with appropriate culture medium renewed every day.\nTreatment Groups: Model Treatment: (1) HypoSkin® untreated control; (2) Hypo-InflammaSkin® untreated control; (3) topical betamethasone (positive control); (4) topical BisEDT—2.5 mg/mL (treatment applied every day from day 0 to 6; (5) topical BisEDT—1.25 mg/mL (treatment applied every day from day 3 to 6). N=3 per treatment group, except N=5 for Hypo-InflammaSkin® and N=1 for HypoSkin®.\nTopical Treatment—Betamethasone (control): 25 μL of betamethasone was topically applied onto the surface of each skin model. Topical application was performed from Day 0 to Day 6 after removal of the previous treatment residues using a cotton swab.\nTopical Treatment—BisEDT: 36 μL of the test compound was topically applied onto the surface of each skin model, massaging across the entire surface area for 1 minute, using a parafilm wrapped cotton swab; the compound was left on the skin. Topical application was performed from Day 0 to Day 6 (Treatment Group 4) or Day 3 to Day 6 (Treatment Group 5). A total of 9 models were topically treated.\nCulture Media—culture media was collected on Day 3 prior to treatment application and on Day 7 and frozen at −80° C. A total of 42 culture media samples were collected.\nIL-22 release: IL-22 release was measured in culture media using ELISA Human IL-22 Quantikine Kit (Bio-techne, ref D2200). Only samples from control conditions 1 to 3 were analyzed to assess donor's response to T cell activation. Each sample was analyzed in duplicate.\nMSD Immunoassay—cytokine release (IL-2, IL-13, IL-15, IL-17A, IL-22, TNF-α, INF-γ, MIP-1β, and […]) in the culture medium was measured using the V-PLEX Plus Human Cytokine Kit (KI5089G, MesoScale Discovery) (FIGS. 13D-13S)."}}}
{"molecule": "C=CC[C@@H]1/C=C(\\C)C[C@H](C)C[C@H](OC)[C@H]2O[C@@](O)(C(=O)C(=O)N3CCCC[C@H]3C(=O)O[C@H](/C(C)=C/[C@@H]3CC[C@@H](O)[C@H](OC)C3)[C@H](C)[C@@H](O)CC1=O)[C@H](C)C[C@@H]2OC", "note": "[Tacrolimus, tacrolimus]", "values": [{"measurement": "Hyperkeratosis (lesion score)", "setting": "[1]", "value": "0.88 ± 0.64"}, {"measurement": "Hyperplasia (lesion score)", "setting": "[1]", "value": "1.63 ± 0.52"}, {"measurement": "Inflammation (lesion score)", "setting": "[1]", "value": "1.38 ± 0.52"}, {"measurement": "Necrosis (lesion score)", "setting": "[1]", "value": "0.13 ± 0.35"}, {"measurement": "Total histological score", "setting": "[1]", "value": "4.00 ± 1.69"}]}
{"molecule": "NCC[C@H](O)C(=O)N[C@@H]1C[C@H](N)[C@@H](O[C@H]2O[C@H](CN)[C@@H](O)[C@H](O)[C@H]2O)[C@H](O)[C@H]1O[C@H]1O[C@H](CO)[C@@H](O)[C@H](N)[C@H]1O", "note": "[amikacin, reference compound]", "values": [{"measurement": "lung histomorphologic observation", "setting": "[2]", "value": "infiltration of mononuclear phagocytes, interstitial edema, and interstitial hemorrhage"}]}
{"molecule": "C[C@H]1C[C@H]2[C@@H]3CCC4=CC(=O)C=C[C@]4(C)[C@@]3(F)[C@@H](O)C[C@]2(C)[C@@]1(O)C(=O)CO", "note": "[betamethasone, reference compound]", "values": [{"measurement": "IL-22 release, average concentration (ELISA)", "setting": "[3]", "value": 16.67, "unit": "µg/mL"}]}
